Results from patent US6479515B1, “Heterocyclic benzenesulphonamide compounds as bradykinine antagonists” (Fournier Industrie et Sante, priority 1999, dated 2002).
Counter-ions that a name gives are not always drawn. Like-named read-outs stand apart in the source and are kept apart here.

How the values were obtained:
[1] = target: T1, human B2 receptor (Homo sapiens, UniProt P30411); assay: competitive binding test on CHO cell membranes expressing the human B2 receptor using [3H]-bradykinin as ligand
T1 construct: expressed in transfected cells; host or cells: CHO cells (membranes)
T1 sequence (P30411 1-391): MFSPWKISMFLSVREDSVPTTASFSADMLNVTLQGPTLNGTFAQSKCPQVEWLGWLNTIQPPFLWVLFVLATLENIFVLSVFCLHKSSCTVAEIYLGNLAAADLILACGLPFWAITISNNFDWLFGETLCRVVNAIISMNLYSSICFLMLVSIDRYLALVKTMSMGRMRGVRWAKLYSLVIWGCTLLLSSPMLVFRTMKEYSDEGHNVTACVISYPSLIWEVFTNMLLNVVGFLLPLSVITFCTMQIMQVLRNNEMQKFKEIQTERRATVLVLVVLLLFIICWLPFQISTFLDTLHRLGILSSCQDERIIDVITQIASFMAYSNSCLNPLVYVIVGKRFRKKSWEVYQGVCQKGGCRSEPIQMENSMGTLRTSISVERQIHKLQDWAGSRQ
Protocol: The activity of the products according to the invention was evaluated, according to a first aspect, as a function of their aptitude to bind to the bradykinin B2 receptors. […] It is likewise known that bradykinin is amongst one of the most powerful algesic agents known. The mode of action of kinins and more particularly of bradykinin makes a coupling of the peptides to the two types of receptors called B1 and B2 respectively take place. The B2 receptor belongs to the large family of receptors with seven transmembrane domains coupled to the G proteins and seems to be more particularly involved in the field of the pathologies mentioned above. This is the reason why the products of the invention, which have the property of being able to bind to the B2 receptor, inhibit the binding of bradykinin and, consequently, suppress its harmful activity. The test employed in order to measure this property is a competitive binding test on CHO cell membranes expressing the human B2 receptor using bradykinin labelled with tritium ([^3H]-bradykinin) as ligand.
The results are expressed by the Ki value, as calculated according to the recommended method with the description of the test employed and described according to D. Pruneau et al., in Br. J. Pharmacol. 1998, 125 p 365-372.

[2] = target: T2, bradykinin B2 receptor (Homo sapiens, UniProt P30411); assay: inhibition of the contraction of the isolated human umbilical vein in the presence of bradykinin; format: cell-based
T2 construct: from tissue; host or cells: isolated human umbilical vein
T2 sequence (P30411 1-391): T1 sequence (P30411 1-391)
Source text: This antagonist character is expressed by the value pA2, calculated according to a biological test employed in order to measure the inhibition of the contraction of the isolated human umbilical vein by the compounds according to the invention in the presence of bradykinin. The test procedure and the method of calculation of pA2 are described in the articles of D. Pruneau et al. published in Br. J. Pharmacol. 1998, 125, p 365-372 and J L. Paquet et al. Br. J. Pharmacol. 1999, 126 (in print).

[3] = isolated human umbilical vein, contraction in the presence of bradykinin, read-out: pA2 (converted)

Ki [1] [nM] | Kb [2, 3] [nM] | Structure (SMILES) | Kb [2] [nM]
21 | 12.6 | Cc1cc(-n2ccnc2)c2cccc(OCc3c(Cl)ccc(S(=O)(=O)N4CCC[C@H]4C(=O)N(C)CCN(C)CCCCO)c3Cl)c2n1 [Example 103, 1-[[2,4-Dichloro-3-[[[4-(1H-imidazol-1-yl)-2-methyl-8-quinolinyl]oxy]methyl]-phenyl]sulphonyl]-N-methyl-N-[2-[[4-(hydroxy)butyl](methyl)amino]ethyl]-2(S)-pyrrolidinecarboxamide, methanesulphonate] | –
15 | 5.01 | Cc1cc(-n2ccnc2)c2cccc(OCc3c(Cl)ccc(S(=O)(=O)N4CCC[C@H]4C(=O)NCC4CCN(Cc5ccccn5)CC4)c3Cl)c2n1 [Example 109, 1-[[2,4-Dichloro-3-[[[4-(1H-imidazol-1-yl)-2-methyl-8-quinolinyl]oxy]methyl]-phenyl]sulphonyl]-N-[[1-(2-pyridinylmethyl)-4-piperidinyl]methyl]-2(S)-pyrrolidinecarboxamide, methanesulphonate] | –
5.8 | 6.31 | Cc1cc(-n2cncn2)c2cccc(OCc3c(Cl)ccc(S(=O)(=O)N4CCC[C@H]4C(=O)NCC4CCN(CCO)CC4)c3Cl)c2n1 [Example 166, 1-[[2,4-Dichloro-3-[[[2-methyl-4-(1H-1,2,4-triazol-1-yl)-2-methyl-8-quinolinyl]oxy]methyl]phenyl]sulphonyl]-N-[[1-(2-(hydroxyethyl)-4-piperidinyl]methyl]-2(S)-pyrrolidinecarboxamide, methanesulphonate] | –
8.8 | 7.94 | CC(=O)N[C@H]1CCN(S(=O)(=O)c2ccc(Cl)c(COc3cccc4c(-n5ccnc5)cc(C)nc34)c2Cl)C1 [Example 174, N-[1-[[2,4-Dichloro-3-[[[4-(1H-imidazol-1-yl)-2-methyl-8-quinolinyl]oxy]-methyl]phenyl]sulphonyl]-3(S)-pyrrolidinyl]acetamide] | –

Further lines, the compound ahead of its results:

Structure (SMILES) | Ki [1] [nM] | Kb [2, 3] [nM] | Kb [2] [nM]
Cc1cc(-n2ccnc2)c2cccc(OCc3c(Cl)ccc(S(=O)(=O)N4CCC[C@H]4C(=O)NCC4CCN(CCC(=O)O)CC4)c3Cl)c2n1 [Example 115, 4-[[[[1-[[2,4-Dichloro-3-[[[4-(1H-imidazol-1-yl)-2-methyl-8-quinolinyl]oxy]-methyl]phenyl]sulphonyl]-2(S)-pyrrolidinyl]carbonyl]amino]methyl]-1-piperidinepropanoic acid, tartrate] | 35 | – | 3.16
CNCCCNC(=O)[C@@H]1CCCN1S(=O)(=O)c1ccc(Cl)c(COc2cccc3c(-n4ccnc4)cc(C)nc23)c1Cl [Example 123, 1-[[2,4-Dichloro-3-[[[4-(1H-imidazol-1-yl)-2-methyl-8-quinolinyl]oxy]methyl]-phenyl]sulphonyl]-N-[3-(methylamino)propyl]-2(S)-pyrrolidinecarboxamide, trifluoroacetate] | 8.1 | – | 3.98
Cc1cc(-n2ccnc2)c2cccc(OCc3c(Cl)ccc(S(=O)(=O)N4CC[C@@H](O)C4)c3Cl)c2n1 [Example 170, 1-[[2,4-Dichloro-3-[[[4-(1H-imidazol-1-yl)-2-methyl-8-quinolinyl]oxy]methyl]-phenyl]sulphonyl]-3(R)-pyrrolidinol, tartrate] | 7.8 | – | 10
